Reference: ChEMBL document CHEMBL4014283, “Structural insights of SmKDAC8 inhibitors: Targeting Schistosoma epigenetics through a combined structure-based 3D QSAR, in vitro and synthesis strategy” (Bioorg Med Chem, 2017)

Legend:
Histone deacetylase 8 = target: T1, Histone deacetylase 8 (Schistosoma mansoni, UniProt A5H660); assay: Inhibition of Schistosoma mansoni KDAC8 using (FAM)-labeled peptide as substrate after 60 mins by microfluidic assay
T1 sequence (A5H660 whole entry): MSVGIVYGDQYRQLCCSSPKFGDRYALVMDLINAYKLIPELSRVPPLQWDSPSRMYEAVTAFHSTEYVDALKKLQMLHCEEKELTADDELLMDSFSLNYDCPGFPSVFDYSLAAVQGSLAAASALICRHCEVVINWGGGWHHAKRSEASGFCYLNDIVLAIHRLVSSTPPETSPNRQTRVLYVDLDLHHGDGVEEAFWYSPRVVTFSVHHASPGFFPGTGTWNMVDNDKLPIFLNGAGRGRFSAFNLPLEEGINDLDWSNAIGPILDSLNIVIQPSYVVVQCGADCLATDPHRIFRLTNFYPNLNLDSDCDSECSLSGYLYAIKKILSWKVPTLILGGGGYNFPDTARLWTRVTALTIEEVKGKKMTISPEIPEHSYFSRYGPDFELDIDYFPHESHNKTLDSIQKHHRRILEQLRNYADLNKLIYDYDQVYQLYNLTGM

[1] = target: T2, Histone deacetylase 8 (Schistosoma mansoni) (UniProt A5H660); assay: Inhibition of Schistosoma mansoni KDAC8 at 30 uM using (FAM)-labeled peptide as substrate after 60 mins by microfluidic assay
T2 sequence (whole entry): T1 sequence (A5H660 whole entry)

COC(=O)CCCCN1C(=O)[C@H](C(C)C)N=C(c2ccccc2)c2ccccc21
IC50 (Histone deacetylase 8; read-out: IC50): > 30 µM | inhibition [1]: 0%

O=C(O)CC[C@@H]1N=C(c2ccccc2)c2ccccc2NC1=O
IC50 (Histone deacetylase 8; read-out: IC50): > 30 µM | inhibition [1]: 0%

CC(C)(C)OC(=O)C[C@@H]1N=C(c2ccccc2)c2ccccc2NC1=O
IC50 (Histone deacetylase 8; read-out: IC50): > 30 µM | inhibition [1]: 0%

COC(=O)CCCCN1C(=O)[C@H](Cc2ccccc2)N=C(c2ccccc2)c2ccccc21
IC50 (Histone deacetylase 8; read-out: IC50): > 30 µM | inhibition [1]: 0%

O=C(CCCCN1C(=O)[C@H](Cc2cnc[nH]2)N=C(c2ccccc2)c2ccccc21)NO
IC50 (Histone deacetylase 8; read-out: IC50): > 30 µM | inhibition [1]: 4.11%

O=C(C[C@@H]1N=C(c2ccccc2)c2ccccc2NC1=O)NC(c1ccccc1)(c1ccccc1)c1ccccc1
IC50 (Histone deacetylase 8; read-out: IC50): > 30 µM | inhibition [1]: 0%

O=C(CCCCN1C(=O)[C@H](CC(=O)NC(c2ccccc2)(c2ccccc2)c2ccccc2)N=C(c2ccccc2)c2ccccc21)NO
IC50 (Histone deacetylase 8; read-out: IC50): 26.3 µM | inhibition [1]: 52.3%

CSCC[C@@H]1N=C(c2ccccc2)c2ccccc2NC1=O
IC50 (Histone deacetylase 8; read-out: IC50): > 30 µM | inhibition [1]: 0%

N=C(N)NCCC[C@@H]1N=C(c2ccccc2)c2ccccc2N(CCCCC(=O)NO)C1=O
IC50 (Histone deacetylase 8; read-out: IC50): > 30 µM | inhibition [1]: 23.5%

O=C(CCCCCCC(=O)Nc1cccc(C(=O)O)c1)NO
IC50 (Histone deacetylase 8; read-out: pIC50 (converted)): 1.91 µM

CC(C)C[C@@H]1N=C(c2ccccc2)c2ccccc2NC1=O
IC50 (Histone deacetylase 8; read-out: IC50): > 30 µM | inhibition [1]: 0%

C[C@@H]1N=C(c2ccccc2)c2ccccc2NC1=O
IC50 (Histone deacetylase 8; read-out: IC50): > 30 µM | inhibition [1]: 0%

O=C(CCCCN1C(=O)[C@H](CC(=O)NO)N=C(c2ccccc2)c2ccccc21)NO
IC50 (Histone deacetylase 8; read-out: IC50): > 30 µM | inhibition [1]: 5.21%

O=C(O)CCCCN1C(=O)[C@H](Cc2ccccc2)N=C(c2ccccc2)c2ccccc21
IC50 (Histone deacetylase 8; read-out: IC50): > 30 µM | inhibition [1]: 0%

CC(C)(C)OC(=O)CC[C@@H]1N=C(c2ccccc2)c2ccccc2N(CCCCC(=O)O)C1=O
IC50 (Histone deacetylase 8; read-out: IC50): > 30 µM | inhibition [1]: 0%

CC(C)(C)SC[C@H]1N=C(c2ccccc2)c2ccccc2N(CCCCC(=O)O)C1=O
IC50 (Histone deacetylase 8; read-out: IC50): > 30 µM | inhibition [1]: 0%

CC(C)(C)OC(=O)CC[C@H]1N=C(c2ccccc2)c2ccccc2NC1=O
IC50 (Histone deacetylase 8; read-out: IC50): > 30 µM | inhibition [1]: 12.3%

CC(C)C[C@@H]1N=C(c2ccccc2)c2ccccc2N(CCCCC(=O)NO)C1=O
IC50 (Histone deacetylase 8; read-out: IC50): > 30 µM | inhibition [1]: 23.1%

COC(=O)CCCCN1C(=O)[C@H]([C@@H](C)OCc2ccccc2)N=C(c2ccccc2)c2ccccc21
IC50 (Histone deacetylase 8; read-out: IC50): > 30 µM | inhibition [1]: 0%

CC(/C=C/C(=O)NO)=C\[C@@H](C)C(=O)c1ccc(N(C)C)cc1 [TRICHOSTATIN]
IC50 (Histone deacetylase 8; read-out: IC50): 3.62 µM

CC[C@H](C)[C@@H]1N=C(c2ccccc2)c2ccccc2N(CCCCC(=O)O)C1=O
IC50 (Histone deacetylase 8; read-out: IC50): > 30 µM | inhibition [1]: 0%

CC(C)(C)SC[C@H]1N=C(c2ccccc2)c2ccccc2NC1=O
IC50 (Histone deacetylase 8; read-out: IC50): > 30 µM | inhibition [1]: 0%

O=C(CC[C@H]1N=C(c2ccccc2)c2ccccc2NC1=O)NO
IC50 (Histone deacetylase 8; read-out: IC50): > 30 µM | inhibition [1]: 24%

CN(C)Nc1cccc(C(=O)NO)c1
IC50 (Histone deacetylase 8; read-out: pIC50 (converted)): 1.58 µM

O=C(CS)NCCCCCC(=O)Nc1ccccc1
IC50 (Histone deacetylase 8; read-out: pIC50 (converted)): 50.1 µM

O=C1CN=C(c2ccccc2)c2ccccc2N1 [RO-052921]
IC50 (Histone deacetylase 8; read-out: IC50): > 30 µM | inhibition [1]: 9.5%

CN(C)c1ccc(C(=O)NCC2CCC(C(=O)NO)CC2)cc1 (centres undefined)
IC50 (Histone deacetylase 8; read-out: pIC50 (converted)): 12 µM

CC(C)(C)OC(=O)C[C@@H]1N=C(c2ccccc2)c2ccccc2N(CCCCC(=O)O)C1=O
IC50 (Histone deacetylase 8; read-out: IC50): > 30 µM | inhibition [1]: 0%

Cc1c(C)c(S(=O)(=O)NC(=N)NCCC[C@@H]2N=C(c3ccccc3)c3ccccc3NC2=O)c(C)c2c1OC(C)(C)C2
IC50 (Histone deacetylase 8; read-out: IC50): > 30 µM | inhibition [1]: 0%

COC(=O)CCCCN1C(=O)[C@H](COC(C)(C)C)N=C(c2ccccc2)c2ccccc21
IC50 (Histone deacetylase 8; read-out: IC50): > 30 µM | inhibition [1]: 0%

CC[C@H](C)[C@@H]1N=C(c2ccccc2)c2ccccc2N(CCCCC(=O)OC)C1=O
IC50 (Histone deacetylase 8; read-out: IC50): > 30 µM | inhibition [1]: 0%

COC(=O)CCCCN1C(=O)[C@H](CCCNC(=N)NS(=O)(=O)c2c(C)c(C)c3c(c2C)CC(C)(C)O3)N=C(c2ccccc2)c2ccccc21
IC50 (Histone deacetylase 8; read-out: IC50): > 30 µM | inhibition [1]: 0%

O=C(CCCCN1C(=O)[C@H](Cc2ccccc2)N=C(c2ccccc2)c2ccccc21)NO
IC50 (Histone deacetylase 8; read-out: IC50): > 30 µM | inhibition [1]: 14.4%

O=C(O)C[C@H]1N=C(c2ccccc2)c2ccccc2NC1=O
IC50 (Histone deacetylase 8; read-out: IC50): > 30 µM | inhibition [1]: 0%

CC(C)(C)OC[C@@H]1N=C(c2ccccc2)c2ccccc2NC1=O
IC50 (Histone deacetylase 8; read-out: IC50): > 30 µM | inhibition [1]: 0%

CCC(=O)CCCCC[C@@H]1NC(=O)C2CCCCN2C(=O)[C@H](C(C)CC)NC(=O)[C@H](Cc2cn(OC)c3ccccc23)NC1=O (some centres undefined)
IC50 (Histone deacetylase 8; read-out: IC50): 28.8 µM

CC(C)(C)OC(=O)n1c(C[C@@H]2N=C(c3ccccc3)c3ccccc3N(CCCCC(=O)O)C2=O)cc2ccccc21
IC50 (Histone deacetylase 8; read-out: IC50): > 30 µM | inhibition [1]: 0%

O=C(CCCCN1C(=O)[C@@H](CS)N=C(c2ccccc2)c2ccccc21)NO
IC50 (Histone deacetylase 8; read-out: IC50): 20.9 µM | inhibition [1]: 57%

O=C(CCCCN1C(=O)[C@H](Cc2ccc(O)cc2)N=C(c2ccccc2)c2ccccc21)NO
IC50 (Histone deacetylase 8; read-out: IC50): > 30 µM | inhibition [1]: 0%

O=C(CC[C@@H]1N=C(c2ccccc2)c2ccccc2NC1=O)NO
IC50 (Histone deacetylase 8; read-out: IC50): > 30 µM | inhibition [1]: 25.9%

O=C(CCCCN1C(=O)[C@H](CCC(=O)NC(c2ccccc2)(c2ccccc2)c2ccccc2)N=C(c2ccccc2)c2ccccc21)NO
IC50 (Histone deacetylase 8; read-out: IC50): > 30 µM | inhibition [1]: 32.1%

CC(C)(C)OC(=O)C[C@@H]1N=C(c2ccccc2)c2ccccc2N(CCCCC(=O)NO)C1=O
IC50 (Histone deacetylase 8; read-out: IC50): > 30 µM | inhibition [1]: 38.8%

CSCC[C@@H]1N=C(c2ccccc2)c2ccccc2N(CCCCC(=O)O)C1=O
IC50 (Histone deacetylase 8; read-out: IC50): > 30 µM | inhibition [1]: 0%

O=C(CCCCN1C(=O)[C@H](Cc2cc3ccccc3[nH]2)N=C(c2ccccc2)c2ccccc21)NO
IC50 (Histone deacetylase 8; read-out: IC50): > 30 µM | inhibition [1]: 19.7%

CC(C)[C@@H]1N=C(c2ccccc2)c2ccccc2N(CCCCC(=O)O)C1=O
IC50 (Histone deacetylase 8; read-out: IC50): > 30 µM | inhibition [1]: 0%

COC(=O)[C@H](Cc1ccccc1)NC(=O)CCCCCCCCC(=O)NO
IC50 (Histone deacetylase 8; read-out: pIC50 (converted)): 0.794 µM

Cc1ccc(CN(Cc2ccc(C(=O)NO)cc2)S(=O)(=O)c2ccc(F)c(C)c2)cc1
IC50 (Histone deacetylase 8; read-out: pIC50 (converted)): 5.62 µM

CN(C)c1ccc(C(=O)NCCCCCCC(=O)NO)cc1
IC50 (Histone deacetylase 8; read-out: pIC50 (converted)): 3.16 µM

CN(C)c1ccc(C(=O)NCc2ccc(C(=O)NO)cc2)cc1
IC50 (Histone deacetylase 8; read-out: pIC50 (converted)): 2.88 µM

O=C(CCCCCN1C(=O)c2cccc3cccc(c23)C1=O)NO
IC50 (Histone deacetylase 8; read-out: IC50): 1.77 µM

CN1CCc2c(c3ccccc3n2Cc2ccc(C(=O)NO)cc2)C1 [TUBASTATIN A]
IC50 (Histone deacetylase 8; read-out: pIC50 (converted)): 1.48 µM

Cc1[nH]c2ccccc2c1CCNCc1ccc(/C=C/C(=O)NO)cc1 [PANOBINOSTAT]
IC50 (Histone deacetylase 8; read-out: IC50): 0.45 µM

N[C@H](Cc1ccc(Cl)cc1Cl)C(=O)N1Cc2ccccc2C1
IC50 (Histone deacetylase 8; read-out: IC50): 29.1 µM

O=C(CCCCCC(=O)N/N=C/c1ccc(-c2ccccc2)cc1)NO
IC50 (Histone deacetylase 8; read-out: pIC50 (converted)): 0.891 µM

CCCCCC(=O)NO
IC50 (Histone deacetylase 8; read-out: pIC50 (converted)): 2.51 µM

O=C(NO)c1cccc(NN(Cc2ccccc2)Cc2ccccc2)c1
IC50 (Histone deacetylase 8; read-out: pIC50 (converted)): 9.33 µM

COc1ccc(Cn2ccc3ccc(C(=O)NO)cc32)cc1
pIC50 (Histone deacetylase 8): 1.03 to 6.36

Cn1cc(C2=C(c3cn(CCCCCC(=O)NO)c4ccccc34)C(=O)NC2=O)c2ccccc21
IC50 (Histone deacetylase 8; read-out: pIC50 (converted)): 1.41 µM

CC(C)[C@@H]1NC(=O)[C@@H]2CCCN2C(=O)[C@H]2CCCN2C(=O)C[C@@H](C(=O)NCCSSCCNC(=O)[C@@H]2CC(=O)N3CCC[C@@H]3C(=O)N3CCC[C@H]3C(=O)N[C@@H](C(C)C)C(=O)N2)NC1=O
inhibition [1]: 0%

O=C(NO)c1sc2ccccc2c1Cl
IC50 (Histone deacetylase 8; read-out: pIC50 (converted)): 4.37 µM

CC(C)[C@@H]1NC(=O)[C@@H]2CCCN2C(=O)[C@H]2CCCN2C(=O)C[C@H](C(=O)OCc2ccccc2)NC1=O
inhibition [1]: 0%

CC(C)[C@@H]1NC(=O)[C@H]2CCCN2C(=O)[C@@H]2CCCN2C(=O)C[C@@H](C(=O)NCCCO)NC1=O
inhibition [1]: 0%

CC(C)[C@@H]1NC(=O)[C@H]2CCCN2C(=O)[C@@H]2CCCN2C(=O)C[C@H](C(=O)NCCCSSCCCNC(=O)[C@H]2CC(=O)N3CCC[C@H]3C(=O)N3CCC[C@@H]3C(=O)N[C@@H](C(C)C)C(=O)N2)NC1=O
inhibition [1]: 3.36%

C[C@H]1Sc2ccc(C(=O)NO)cc2NC1=O
IC50 (Histone deacetylase 8; read-out: pIC50 (converted)): 1.48 µM

O=C(NO)C1CCN(S(=O)(=O)c2ccc3c(c2)CCC3)CC1
IC50 (Histone deacetylase 8; read-out: pIC50 (converted)): 3.02 µM
